Common to all, as to type: in vivo
Experiment [1] relates to 3rd-instar larvae of Ostrinia furnacalis Guenee. The experiment is described as follows: Synergism screening (Bliss) of I-72 + ecdysteroid and juvenile hormone insecticides, Example 51, Table 51. The settings on record: Ostrinia furnacalis; single pesticide, 2 mg/L; 72 hours; read-out: Measured mortality rate. Here is the method:
Test target: 3rd-instar larvae of Ostrinia furnacalis Guenee.
(§1) Preparation of the pesticide solution: according to different test requirements, the test samples were accurately weighed respectively with an electronic analytical balance. The technical pesticides were dissolved in acetone, and then diluted with 0.1% Tween 80 water into a series of pesticide solutions with a certain concentration gradient according to the experimental design dosage.
Experimental method: first, tender corn stems were selected and dipped in the prepared pesticide solution for 10 s in the order from low dosage to high dosage according to the experimental design. After natural air-drying in the shade, they were placed in a 9-cm-diameter Petri dish with filter paper, and uniform and healthy test insects were introduced, with 10 insects for each treatment and 3 replicates for each treatment. In addition, a blank control (CK) was set up.
The treated test materials were placed in an observation room, and the temperature, humidity and illumination of the observation room could be adjusted as needed. The number of dead and alive insects was investigated 72 hours later, and the corrected mortality rate was calculated using the Abbott's formula.
The synergism of the mixture was evaluated by adopting the Bliss method, as in Example 5.

For experiment [2], the system named is Myzus persicae (Sulzer) nymphs. The experiment in a line: Joint toxicity of I-72 + cyantraniliprole, Example 59, Table 59. The settings on record: A = compound I-72, B = cyantraniliprole, cabbage leaf spraying, 48 hours, read-out: LC50. Here is the method: Test target: Myzus persicae (Sulzer) nymphs, a sensitive strain reared indoors.
as §1
Experimental method: first, cabbage leaves with uniform and consistent Myzus persicae (Sulzer) were selected, with about 30-40 insects on each leaf. Then, they were evenly sprayed with the pesticide solution in the order from low dosage to high dosage according to the experimental design, with 1.5 mL of the solution for each leaf and 3 replicates for each treatment. In addition, a blank control was set up.
(§2) The treated test materials were placed in an observation room, and the temperature, humidity and illumination of the observation room could be adjusted as needed. The number of dead and live insects was investigated 48 hours later. […] Then, the co-toxicity coefficient of each ratio was calculated using the Sun Y-P method to evaluate the mixing effect (the same as in Example 1).

Experiment [3] concerns 3rd-instar larvae of Hyphantria cunea. The experiment is described as follows: Joint toxicity of I-72 + organophosphorus insecticides, poplar leaf dipping, Example 20, Table 20. The note with it: foliar, A = compound I-72, B = triazophos, poplar leaf dipping, 72 hours, read-out: LC50.
Excerpt: Test target: 3rd-instar larvae of Hyphantria cunea, a sensitive strain reared indoors.
Experimental method: first, fresh and tender poplar leaves were selected, cut into small sections of 5 cm, and dipped in the prepared pesticide solution for 10 s in the order from low dosage to high dosage according to the experimental design. After natural air-drying in the shade, they were placed in a 9-cm-diameter Petri dish with filter paper, and uniform and healthy test insects were introduced, with 10 insects for each treatment and 3 replicates for each treatment. In addition, a blank control was set up.
The treated test materials were placed in an observation room, and the temperature, humidity and illumination of the observation room could be adjusted as needed. The number of dead and live insects was investigated 72 hours later.
Experiment [4] concerns 3rd-instar larvae of Spodoptera exigua Hübner. The experiment is described as follows: Joint toxicity (LC50, CTC) of I-72 + indoxacarb, leaf-disk dipping, Example 1, Table 1. The settings on record: Spodoptera exigua, cabbage leaf-disk dipping, 72 h, A = compound I-72, B = indoxacarb, read-out: LC50. Here is the method:
Test subject: 3rd-instar larvae of Spodoptera exigua Hübner, a sensitive strain reared indoors.
Test conditions: temperature: 24-26° C., humidity: RH 60%, and illumination: L:D=14:10.
Preparation method: the test pesticides were accurately weighed respectively with an electronic analytical balance. After the two technical materials were respectively added into an appropriate amount of solvent and completely dissolved, the stock solution of the required concentration was prepared with water containing 0.1% Tween 80. The stock solutions of the two active ingredients were mixed in a certain ratio to prepare a mixed solution, which was then diluted respectively into a series of pesticide solutions with a certain concentration gradient according to the experimental design dosage.
Experimental method: the dipping method was adopted. […]
The co-toxicity coefficient (CTC value) of the mixture was calculated according to the following formula:
[formula] • in the formula: ATI-measured toxicity index of the mixture; S-LC50 of the standard pesticide; and M-LC50 of the mixture. […]
[formula] • in the formula: CTC-co-toxicity coefficient; ATI-measured toxicity index of the mixture; and TTI-theoretical toxicity index of the mixture. • CTC-co-toxicity coefficient • ATI-measured toxicity index of the mixture • TTI-theoretical toxicity index of the mixture

Experiment [5] concerns adult Phyllotreta striolata (Walker). The experiment is described as follows: Joint toxicity of I-72 + rotenone, insect dipping, Example 35, Table 35. The note with it: A = compound I-72, B = rotenone, insect dipping 10 s, read-out: LC50. The source says: Test target: adult Phyllotreta striolata (Walker), a strain reared indoors.
Experimental method: the dipping method was adopted. Adult flea beetles of uniform size were put into an insect-dipping cage and dipped for 10 s in the order from low dosage to high dosage according to the experimental design, with 30 beetles for each treatment. The beetles were placed in a 9-cm-diameter Petri dish with filter paper, with 3 replicates for each treatment. In addition, a blank control was set up. The treated test materials were placed in an observation room, and the temperature, humidity and illumination of the observation room could be adjusted as needed.
The test conditions, the preparation of the pesticide solution and the evaluation method were the same as those in Example 1.

Experiment [6] has as its system Aphis gossypii Glover nymphs. The experiment in a line: Joint toxicity of I-72 + spiropidion, Example 28, Table 28. The settings on record: Aphis gossypii; A = compound I-72, B = spiropidion; cotton leaf spraying; 48 hours; read-out: LC50. Here is the method: Test target: Aphis gossypii Glover nymphs, a sensitive strain reared indoors.
as §1
Experimental method: first, cotton leaves with uniform and consistent Aphis gossypii were selected, with about 30-40 insects on each leaf. Then, they were evenly sprayed with the pesticide solution in the order from low dosage to high dosage according to the experimental design, with 1.5 mL for each leaf and 3 replicates for each treatment. In addition, a blank control was set up.
as §2

Experiment [7] concerns 3rd-instar larvae of Pyrausta nubilalis Hubern. The experiment in a line: Joint toxicity of I-72 + metaflumizone, artificial diet-pesticide film, Example 2, Table 2. The settings on record: Ostrinia nubilalis, 72 h, A = compound I-72, B = metaflumizone, read-out: LC50. Here is the method:
Test subject: 3rd-instar larvae of Pyrausta nubilalis Hubern, a sensitive strain reared indoors.
Experimental method: the artificial diet-pesticide film method was adopted. A standard clean 24-well culture plate was selected. 1 ml of artificial diet was added to each well. After the diet cooled and solidified, a quantitative amount of a pesticide solution was added to the culture plate using a continuous sampler, and then it was air-dried naturally in the shade. The standard test insects were introduced, with 1 insect in each well, a total of 48 insects. The treated test insects were placed in an observation room under certain conditions. The reaction of the test insects was regularly observed, and the number of dead and live insects was investigated 72 h later.
The test conditions, the preparation method of the pesticide solution, and the evaluation method (Sun Y-P) for the joint action type of the mixture were the same as those in Example 1.

The structures appear in SMILES notation.

A word on the mortality: it is the percentage killed. Usually LC50 stands for the concentration lethal to half of the exposed cells or organisms.

On to `CN(C(=O)c1ccc2c(c1)OC(F)(F)O2)c1cccc(C(=O)Nc2c(Br)cc(C(F)(C(F)(F)F)C(F)(F)F)cc2OC(F)F)c1F` [Compound I-72], for which the mortality at 2 µg/mL in experiment [1] was found to be 75.9%. Also, the median lethal concentration (LC50) turned out to be 8.14 µg/mL in experiment [2]; 5.74 µg/mL in experiment [3]; 0.227 µg/mL in experiment [4]; 1.81 µg/mL in experiment [5]; 3.19 µg/mL in experiment [6]; 0.67 µg/mL in experiment [7].

For the origin of these results see patent US20260198495A1, “BINARY INSECTICIDE COMPOSITION AND USE THEREOF” (SHENYANG SINOCHEM AGROCHEMICALS R & D CO., LTD., priority 2022, published 2026).
